Results taken from the supplement of paper PMC10307832.

Each cell line was assayed with Cc1ccc2nc(NCCN)c3ncc(C)n3c2c1 + Nc1ncn([C@H]2C[C@H](O)[C@@H](CO)O2)c(=O)n1 [Decitabine] (partner 2 µM) (assay: relative viability (nuclei count vs DMSO), 5 days (fraction); higher = more cells survive). Conditions: first compound 4 µM.
Outline: (§1)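 Dosing by pin tool came one day after lung cancer cell lines were seeded in 1536-well plates, using either one drug or a fixed anchor-drug dose plus five library-drug doses (not always all listed) in √10 steps. After 5 days, nuclei were counted on 4× images. Relative viability is treated-well nuclei count divided by vehicle-well nuclei count, and values are medians of duplicate plates.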

Cell Line | relative viability
NCI-H2170 | 0.461
H3255 | 0.702
COR-L23 | 0.411
COR-L 105 | 0.632
LOU-NH91 | 0.797
ChaGo-K-1 | 0.512
NCI-H1793 | 0.453
NCI-H2405 | 0.741
A549 | 0.219
SK-MES-1 | 0.398
SW 900 | 0.458
NCI-H1395 | 0.607
NCI-H1648 | 0.431
ABC-1 | 1.3
NCI-H1944 | 0.422

What follows are cell lines tested with Cc1ccc2nc(NCCN)c3ncc(C)n3c2c1 + CC(C)C[C@H](NC(=O)[C@H](Cc1ccccc1)NC(=O)c1cnccn1)B(O)O [Bortezomib] (partner 0.002 µM) in the same assay as above. Conditions: first compound 0.04 µM.
Outline: as §1

Cell Line | relative viability
NCI-H727 | 0.822
NCI-H1650 | 0.203
EBC-1 | 0.549
NCI-H1703 | 0.34
NCI-H1993 | 1.21
SW 1573 | 0.978
NCI-H838 | 0.878
LCLC-103H | 1.15
NCI-H520 | 0.656
NCI-H2126 | 1.15
EMC-BAC-2 | 1.12
NCI-H2085 | 1.13
Calu-6 | 1.08
HCC-366 | 1.06
NCI-H1666 | 0.878
NCI-H596 | 1.01
NCI-H2087 | 0.756
H3255 | 0.976
COR-L23 | 1.07
COR-L 105 | 0.89
IA-LM | 0.895
LOU-NH91 | 0.494
ChaGo-K-1 | 1.01
NCI-H2405 | 1.03
NCI-H1299 | 1
CAL-12T | 1.03
NCI-H2228 | 1.11
NCI-H1563 | 0.859
ABC-1 | 0.402

Same assay, conditions: first compound 0.1265 µM

Cell Line | relative viability
NCI-H727 | 0.806
NCI-H1650 | 0.19
EBC-1 | 0.526
NCI-H1703 | 0.329
NCI-H1993 | 1.07
SW 1573 | 1.08
NCI-H838 | 0.9
LCLC-103H | 1.23
NCI-H520 | 0.544
NCI-H2126 | 1.1
EMC-BAC-2 | 1.12
NCI-H2085 | 1.02
Calu-6 | 0.891
HCC-366 | 0.948
NCI-H1666 | 0.8
NCI-H596 | 0.937
NCI-H2087 | 0.955
H3255 | 0.745
COR-L23 | 0.913
COR-L 105 | 0.867
IA-LM | 0.94
LOU-NH91 | 0.587
ChaGo-K-1 | 1
NCI-H2405 | 1.03
NCI-H1299 | 0.993
CAL-12T | 0.889
NCI-H2228 | 0.992
NCI-H1563 | 0.757
ABC-1 | 0.223

Same assay, conditions: first compound 0.4 µM

Cell Line | relative viability
NCI-H727 | 0.683
NCI-H1650 | 0.206
EBC-1 | 0.486
NCI-H1703 | 0.329
NCI-H1993 | 0.921
SW 1573 | 0.965
NCI-H838 | 0.615
LCLC-103H | 0.944
NCI-H520 | 0.464
NCI-H2126 | 1.18
EMC-BAC-2 | 0.957
NCI-H2085 | 1.04
Calu-6 | 1.03
HCC-366 | 1.13
NCI-H1666 | 0.762
NCI-H596 | 0.978
NCI-H2087 | 0.66
H3255 | 0.695
COR-L23 | 0.928
COR-L 105 | 0.723
IA-LM | 0.844
LOU-NH91 | 0.556
ChaGo-K-1 | 1.01
NCI-H2405 | 0.964
NCI-H1299 | 1.01
CAL-12T | 0.9
NCI-H2228 | 1.16
NCI-H1563 | 0.875
ABC-1 | 0.337

Same assay, conditions: first compound 1.265 µM

Cell Line | relative viability
NCI-H727 | 0.732
NCI-H1650 | 0.182
EBC-1 | 0.406
NCI-H1703 | 0.347
NCI-H1993 | 1.11
SW 1573 | 1.2
NCI-H838 | 0.631
LCLC-103H | 1.2
NCI-H520 | 0.568
NCI-H2126 | 1.16
EMC-BAC-2 | 1.13
NCI-H2085 | 1.05
Calu-6 | 0.912
HCC-366 | 1.11
NCI-H1666 | 1.03
NCI-H596 | 0.976
NCI-H2087 | 0.824
H3255 | 0.943
COR-L23 | 0.989
COR-L 105 | 0.853
IA-LM | 0.696
LOU-NH91 | 0.529
ChaGo-K-1 | 0.973
NCI-H2405 | 0.969
NCI-H1299 | 1.05
CAL-12T | 0.978
NCI-H2228 | 1.13
NCI-H1563 | 0.968
ABC-1 | 0.282

Same assay, conditions: first compound 4 µM

Cell Line | relative viability
NCI-H727 | 0.639
NCI-H1650 | 0.202
EBC-1 | 0.31
NCI-H1703 | 0.234
NCI-H1993 | 0.875
SW 1573 | 0.55
NCI-H838 | 0.739
LCLC-103H | 1.04
NCI-H520 | 0.36
NCI-H2126 | 1.13
EMC-BAC-2 | 1.05
NCI-H2085 | 1.03
Calu-6 | 0.603
HCC-366 | 0.967
NCI-H1666 | 0.689
NCI-H596 | 0.971
NCI-H2087 | 0.864
H3255 | 0.691
COR-L23 | 0.91
COR-L 105 | 0.737
IA-LM | 0.66
LOU-NH91 | 0.423
ChaGo-K-1 | 0.607
NCI-H2405 | 0.918
NCI-H1299 | 0.972
CAL-12T | 0.776
NCI-H2228 | 0.907
NCI-H1563 | 1.05
ABC-1 | 0.263

These cell lines were tested with Cc1ccc2nc(NCCN)c3ncc(C)n3c2c1 + CC(=O)Nc1cccc(-n2c(=O)n(C3CC3)c(=O)c3c(Nc4ccc(I)cc4F)n(C)c(=O)c(C)c32)c1 [Trametinib] (partner 0.02 µM) in the same assay as above. Conditions: first compound 0.04 µM.
Outline: as §1

Cell Line | relative viability
NCI-H522 | 0.641
